How the values were obtained:
[1] = biological target: Cholinesterase (Equus caballus) (UniProt P81908); conditions: at 2 mg/mL
Description: Inhibition of horse BChE at 2 mg/ml by Ellman's method

[2] = biological target: Acetylcholinesterase (Electrophorus electricus) (UniProt O42275); conditions: at 2 mg/mL
Acetylcholinesterase (Electrophorus electricus), sequence (O42275 24-633 limits assumed): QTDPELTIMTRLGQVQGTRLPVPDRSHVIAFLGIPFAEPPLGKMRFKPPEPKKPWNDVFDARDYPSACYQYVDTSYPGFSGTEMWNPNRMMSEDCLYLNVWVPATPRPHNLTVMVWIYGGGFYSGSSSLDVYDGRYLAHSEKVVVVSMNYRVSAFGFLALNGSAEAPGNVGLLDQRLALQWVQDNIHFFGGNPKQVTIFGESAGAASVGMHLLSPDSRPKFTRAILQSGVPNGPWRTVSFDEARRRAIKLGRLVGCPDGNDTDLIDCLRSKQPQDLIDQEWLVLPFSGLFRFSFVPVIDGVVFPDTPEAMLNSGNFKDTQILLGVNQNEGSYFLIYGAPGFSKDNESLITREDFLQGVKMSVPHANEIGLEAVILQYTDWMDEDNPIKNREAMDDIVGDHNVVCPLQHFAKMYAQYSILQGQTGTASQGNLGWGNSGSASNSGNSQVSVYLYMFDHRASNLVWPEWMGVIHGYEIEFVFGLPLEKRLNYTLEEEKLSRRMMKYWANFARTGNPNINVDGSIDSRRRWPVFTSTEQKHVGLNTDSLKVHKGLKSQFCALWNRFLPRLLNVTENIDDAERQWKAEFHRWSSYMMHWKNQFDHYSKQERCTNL
Description: Inhibition of electric eel AChE at 2 mg/ml by Ellman's method

Cholinesterase (Equus caballus), sequence (P81908 whole entry): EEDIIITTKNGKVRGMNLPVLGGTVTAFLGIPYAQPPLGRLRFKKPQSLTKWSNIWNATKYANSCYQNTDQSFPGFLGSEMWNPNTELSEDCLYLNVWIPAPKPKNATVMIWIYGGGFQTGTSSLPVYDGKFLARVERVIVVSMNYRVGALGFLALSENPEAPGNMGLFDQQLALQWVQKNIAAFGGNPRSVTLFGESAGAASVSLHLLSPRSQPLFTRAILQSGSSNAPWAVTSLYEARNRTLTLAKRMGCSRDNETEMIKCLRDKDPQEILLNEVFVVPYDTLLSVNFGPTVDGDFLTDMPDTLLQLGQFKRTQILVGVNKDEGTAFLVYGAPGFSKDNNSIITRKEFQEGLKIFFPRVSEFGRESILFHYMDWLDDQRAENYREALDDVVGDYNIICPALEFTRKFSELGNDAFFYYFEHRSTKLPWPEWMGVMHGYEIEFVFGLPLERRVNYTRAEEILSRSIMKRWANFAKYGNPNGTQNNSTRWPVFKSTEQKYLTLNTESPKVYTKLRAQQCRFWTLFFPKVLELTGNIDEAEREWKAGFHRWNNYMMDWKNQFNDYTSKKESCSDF

| SMILES | inhibition [1] | inhibition [2] |
| --- | --- | --- |
| CC1(C)CCC[C@](C)([C@H]2CC[C@]3(C)[C@@H]2[C@H](O)C[C@@H]2[C@@]4(C)CC[C@H](O)C(C)(C)[C@@H]4CC[C@]23C)O1 | 12.1% | 7.82% |
| C[C@@H]1O[C@@H](Oc2c(-c3ccc(O)c(O)c3)oc3cc(O)cc(O)c3c2=O)[C@H](O)[C@H](O)[C@H]1O | -6.56% | 0.25% |
| CC[C@H](C)/C=C(C)/C=C/C1=CC2=C(Cl)C(=O)[C@](C)(OC(C)=O)C(=O)C2=CO1 | 6.21% | 3.54% |
| O=C(CCc1ccc(O)cc1)c1c(O)cc(O)cc1O | 17% | -6.41% |
| COc1ccc2c(OC)c3ccoc3nc2c1OC | 6.79% | 39.3% |
| O=c1c(-c2ccc(O)cc2)coc2cc(O[C@@H]3O[C@H](CO)[C@@H](O)[C@H](O)[C@H]3O)ccc12 | -0.76% | 17.6% |
| CN1C2CCCC1CC(=O)C2 | 1.42% | 16.5% |
| COc1cc2c(cc1OC)[C@@H]1C(=O)c3ccc4c(c3O[C@@H]1CO2)C=CC(C)(C)O4 | 2.21% | -8.14% |
| COc1cc2c(c(OC)c1OC)-c1c(cc3c(c1O)OCO3)C[C@H](C)[C@](C)(O)[C@H]2OC(=O)c1ccccc1 | -0.32% | 5.31% |
| CC[C@@]1(O)C(=O)OCc2c1cc1n(c2=O)Cc2cc3ccccc3nc2-1 | 3.9% | 14.1% |
| O=c1cccc2n1C[C@@H]1CNC[C@H]2C1 | -3.85% | 2.17% |
| COc1cc(-c2oc3cc(O)cc(O)c3c(=O)c2OC2O[C@H](CO)[C@@H](O)[C@H](O)[C@H]2O)cc(OC)c1O (stereo partly drawn) | 2.12% | 3.25% |
| O=C1C[C@@H](c2ccc(O)c(O)c2)Oc2c1ccc(O[C@@H]1O[C@H](CO)[C@@H](O)[C@H](O)[C@H]1O)c2O | 3.1% | 8.08% |
| COc1ccc(/C=C/C(=O)c2c(O)cc(OC)cc2OC)cc1 | -9.95% | -6.03% |
| CC1=CC(=O)c2c(O)cccc2C1=O | 9.94% | 31.8% |
| COc1c2ccoc2cc2oc(C)cc(=O)c12 | 16.2% | 7% |
| CC(C)=CCCC1=CC(=O)c2c(O)ccc(O)c2C1=O | -2.66% | 1.52% |
| COc1ccc(C(=O)OC2C[C@H]3CC[C@H](C2)N3C)cc1OC (stereo partly drawn) | 1% | 49.5% |
| CC[C@@H]1/C=C/C=C/C[C@H](C)[C@H](O)[C@](C)(O)C(=O)[C@H](C)[C@@H](O)[C@H](C)C(=O)[C@H](C)[C@@H](O)[C@H](C)/C=C/C(=O)O[C@H]2[C@@H](C)[C@@H](CC1)O[C@@]1(CC[C@@H](C)[C@@H](C[C@H](C)O)O1)[C@@H]2C | 1.56% | -5.62% |
| COC1=CC(=O)C[C@@H](C)[C@]12Oc1c(Cl)c(OC)cc(OC)c1C2=O | -4.49% | -8.73% |
| CCCCC[C@H](O)/C=C/[C@@H]1[C@@H](C/C=C\CCCC(=O)O)[C@@H](O)C[C@H]1O | 5.03% | 12.9% |
| C[C@@]12CCc3occc3[C@H]1CC[C@]13CC(=O)[C@H](CC[C@H]12)C3 | -0.09% | -5.73% |
| C1CCN2C[C@@H]3C[C@@H](CN4CCCC[C@@H]34)[C@H]2C1 | 5.31% | 4.72% |
| O=c1cc(-c2ccc(O)cc2)oc2cc(O)c([C@@H]3O[C@H](CO)[C@@H](O)[C@H](O)[C@H]3O)c(O)c12 | 1.98% | 20.7% |
| CC(=O)O[C@H]1CC[C@]2(C=O)[C@H]3CC[C@]4(C)[C@@H](C5=CC(=O)OC5)CC[C@]4(O)[C@@H]3CC[C@]2(O)C1 | -2.95% | -2.93% |

| SMILES | inhibition [1] | inhibition [2] |
| --- | --- | --- |
| CC1=C2C(=CO[C@H](C)[C@H]2C)C(O)=C(C(=O)O)C1=O | 11.3% | 3.11% |
| O=c1cc(-c2ccc(O)cc2)oc2cc(OC3O[C@H](CO)[C@@H](O)[C@H](O)[C@H]3O)cc(O)c12 (stereo partly drawn) | 5% | 24.9% |
| C=CCc1ccc(O)c(-c2cc(CC=C)ccc2O)c1 | 0.25% | -2.45% |
| O=c1cc(-c2ccccc2)oc2cc(O)cc(O)c12 | 2.93% | 14.6% |
| C=C1C(=O)[C@]23[C@H](CC[C@@H]1[C@@H]2O)[C@]12CO[C@@]3(O)[C@H](O)[C@H]1C(C)(C)CC[C@@H]2O | -8.92% | -3.57% |
| CCN1C[C@]2(COC)CC[C@H](OC)[C@]34C5C[C@@H]6[C@@H](OC)C[C@@]7(OCO[C@@]7(C13)[C@@H](O)C24)C5[C@H]6OC (stereo partly drawn) | -6.6% | 23.4% |
| C/C1=C/CCC(C)(O)/C=C\C(C(C)C)C(OC(=O)c2ccc(O)cc2)C1 (stereo not drawn) | -0.77% | 23.7% |
| COc1ccc(-c2cc(=O)c3c(OC)c(OC)c(OC)cc3o2)cc1OC | 17.1% | 29.6% |
| COC1=C[C@@H](C)[C@@H]2C[C@H]3OC(=O)C[C@H]4C(C)=C(OC)C(=O)[C@H]([C@@]2(C)C1=O)[C@@]34C | 4.69% | 24.7% |
| O=C(/C=C/c1ccc(O)c(O)c1)OCCc1ccccc1 | 17.7% | -8.88% |
| CCN1C[C@]2(OC(=O)c3ccccc3NC(C)=O)CC[C@H](OC)[C@@]34[C@@H]2C[C@@H]([C@@H]13)[C@@]1(O)C[C@H](OC)[C@H]2C[C@@H]4[C@]1(O)[C@H]2OC | -7.41% | 1.48% |
| O=C(/C=C/c1ccc(O)c(O)c1)c1ccc(O[C@@H]2O[C@H](CO)[C@@H](O)[C@H](O)[C@H]2O)c(O)c1O | 2.03% | 22.2% |
| C[C@@H]1O[C@@H](O[C@H]2C(Oc3cc(O)c4c(=O)c(O)c(-c5ccc(O)cc5)oc4c3)O[C@H](CO)[C@@H](O)[C@@H]2O)[C@H](O)[C@H](O)[C@H]1O (stereo partly drawn) | -4.78% | 24.5% |
| COc1cc2c3cc1Oc1cc(ccc1O)C[C@@H]1c4c(cc(OC)c(O)c4Oc4ccc(cc4)C[C@@H]3N(C)CC2)CC[N+]1(C)C | 3.03% | 5.5% |
| CCC1=C[C@@H]2CN(C1)Cc1c([nH]c3ccccc13)[C@@](C(=O)OC)(c1cc3c(cc1OC)N(C)[C@H]1[C@@](O)(C(=O)OC)[C@H](OC(C)=O)[C@]4(CC)C=CCN5CC[C@]31[C@@H]54)C2 | 12.2% | -0.32% |
| O=c1cc(-c2ccccc2)oc2cc(O)c(O)c(O)c12 | 15% | -3.74% |
| CN1C(=O)C[C@H](C(=O)O)[C@H]1c1cccnc1 (relative stereo) | -4.39% | -2.93% |
| O=C1C[C@@H](c2ccccc2)Oc2cc(O)cc(O)c21 | 1.45% | 27.3% |
| COC(=O)[C@H]1[C@H]2C[C@H]3c4[nH]c5ccccc5c4CCN3C[C@@H]2CC[C@@H]1O | 6.02% | 15.8% |
| CCN1C[C@]2(C)CC[C@H](O)[C@]34C1[C@@H](C[C@H]23)[C@@]1(O)C[C@H](OC)[C@H]2C[C@@H]4[C@@H]1[C@H]2O | -5.97% | 20% |
| CC1=C2[C@H]3OC(=O)[C@@H](C)[C@@H]3CC[C@@]2(C)C=CC1=O | -3.62% | 3.63% |
| CN1c2ccccc2C(=O)N2CCc3c([nH]c4ccccc34)[C@@H]21 | 26% | 12.4% |
| Cc1cc2cc3c(C)cc(=O)oc3c(C)c2o1 | 2.42% | 14.3% |
| O=C(/C=C/c1ccc(O)c(O)c1)O[C@H](Cc1ccc(O)c(O)c1)C(=O)O | -3.64% | 14.9% |

Source: ChEMBL document CHEMBL2163249, “Exploration of natural compounds as sources of new bifunctional scaffolds targeting cholinesterases and beta amyloid aggregation: the case of chelerythrine” (Bioorg Med Chem, 2012)
